Where no end group is shown, it is not given here.
How the values were obtained:
[1] = Peptide solubility by visual inspection; type: physicochemical; for Visual inspection after centrifugation pH 7: key: ok: clear solution; +: very small precipitation only visible with a magnifier; ++: precipitation/turbid solution; +++: more precipitation/turbid solution
Method in brief: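 Peptides were dissolved in water (pH 3-5) or 250 mM D-mannitol with 25 mM sodium acetate pH 4.5 or 25 mM sodium phosphate pH 7.0. Solutions were inspected visually for turbidity and particles before and after filtration and after centrifugation for pellets, with OD of filtered material also measured.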

[2] = tested on: allergen specific T cells; experiment: T cell proliferation assay (72 h) on donor derived T cell lines (TCL02/TCL03); type: cell-based, human; details: for T cell response in % of the donors tested: single peptide; for Proliferation % donor coverage (TCL-02 DK1): T cell lines TCL-02 DK1, 30 donors, hit criteria SI>=2, CPM>=1000; for Proliferation strength (TCL-02 DK1): T cell lines TCL-02 DK1, strength of response (average relative magnitude)
Method in brief: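 Overlapping 20-mer and selected 15-mer grass allergen peptides were screened for proliferation using TCL02 (day 24) or TCL03 (day 34) lines. Lines came from grass-allergic donors' CD8-depleted PBMCs, primed with natural allergen mix and expanded with irradiated autologous or allogeneic APCs, PHA-P 0.5 μg/ml and rIL-2.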

[3] = 3 mg/mL, acetate salt, non-filtered, 250 mM D-Mannitol and 25 mM sodium phosphate, pH 7.0

Substance	solubility, 1st round of solubility screening [1]	Visual inspection after 60 min pH 7 [1, 3]	Visual inspection after 60 min pH 4.5 ([1]; 3 mg/mL, acetate salt, non-filtered, 250 mM D-Mannitol and 25 mM sodium acetate, pH 4.5)	Visual inspection after centrifugation pH 4.5 ([1]; 3 mg/mL, acetate salt, non-filtered, 250 mM D-Mannitol and 25 mM sodium acetate, pH 4.5, after centrifugation)	Visual inspection after centrifugation pH 7 ([1]; 3 mg/mL, acetate salt, non-filtered, 250 mM D-Mannitol and 25 mM sodium phosphate, pH 7.0, after centrifugation)	solubility in aqueous solutions [1]	T cell response in % of the donors tested [2] [%]	Proliferation % donor coverage (TCL-02 DK1) [2] [%]	Proliferation strength (TCL-02 DK1) [2]
AYESYKFIPALEAAVKQAYA-OH [peptide 285]						surprisingly good solubility in aqueous solutions	~50		
PANDKFTVFEAAFNNAIKAS-OH [compound 70]	soluble							46.67	8.10
STGGAYESYKFIPALEAAVK-OH [compound 71]	soluble	tread +				surprisingly good solubility in aqueous solutions	~50	46.67	8.20
VATLSEALRIIAGTLEVHAV-OH [compound 67]								43.33	7.30

Now from value to substance, other results behind:

solubility, 1st round of solubility screening [1]	Visual inspection after 60 min pH 7 [1, 3]	Visual inspection after 60 min pH 4.5 ([1]; 3 mg/mL, acetate salt, non-filtered, 250 mM D-Mannitol and 25 mM sodium acetate, pH 4.5)	Visual inspection after centrifugation pH 4.5 ([1]; 3 mg/mL, acetate salt, non-filtered, 250 mM D-Mannitol and 25 mM sodium acetate, pH 4.5, after centrifugation)	Visual inspection after centrifugation pH 7 ([1]; 3 mg/mL, acetate salt, non-filtered, 250 mM D-Mannitol and 25 mM sodium phosphate, pH 7.0, after centrifugation)	Substance	solubility in aqueous solutions [1]	T cell response in % of the donors tested [2] [%]	Proliferation % donor coverage (TCL-02 DK1) [2] [%]	Proliferation strength (TCL-02 DK1) [2]
soluble					DKYRTFVATFGAASNKAFAE-OH [peptide 231]		~40		
soluble					TDDNEEPIAPYHFDLSGHAF-OH [peptide 204]	surprisingly good solubility in aqueous solutions	~40		
soluble	particles +	+ particles,	++	+++	WGAIWRIDTPDKLTGPFTVR-OH [peptide 211]	surprisingly good solubility in aqueous solutions	~40		
